Data as given in patent publication US20240067665A1, “SMALL MOLECULES FOR BORON NEUTRON CAPTURE THERAPY” (Aviko Radiopharmaceuticals, LLC, priority 2022, published 2024).

What was measured:
Details in all cases: 100 uM
NIH-3T3 = assay: Cell uptake assay, NIH-3T3 cells; type: cell-based, mouse
Protocol: (§1) • 1.1.1 15 mL of cell culture medium was placed into a T225 flask. • 1.1.2 The flask was placed in a humidified 37° C., 5% CO2 incubator for 15 minutes to allow medium to equilibrate to the proper pH and temperature. • 1.1.3 The vial was removed from liquid nitrogen and thawed rapidly by placing at 37° C. in a water bath with gentle agitation for 1-2 minutes and then decontaminated by wiping with 70% ethanol before opening in a Class II biological safety cabinet. • 1.1.4 The vial contents were transferred dropwise into 10 mL of cell culture medium in a sterile 15 mL conical tube. • 1.1.5 The cells were centrifuged at 1,300 rpm for 5 minutes. • 1.1.6 The supernatant was aspirated and re-suspended the cells and transferred the cells into T225 flask containing cell culture medium.
(§2) • 1.2.1 Culture medium were renewed every 2-3 days. • 1.2.2 Keep the flask in a humidified 37° C., 5% CO2 incubator
(§3) • Cells were harvested and diluted in culture medium to the designated concentration. Then the cells were cultured in T25 flasks, one T25 flask for one sample. 2.2 Formulation of test compounds • 2.2.1 L-Boronophenylalanine (L-BPA, 4-boron-L-phenylalanine, Purity: 95%, Chemical formula: C9H12BNO4, MW: 209.01, CAS: 76410-58-7) and fructose were dissolved in PBS at a molar ratio of 1:5, and then a 1.27 M ratio of 1 N NaOH is added. The mixture was stirred until L-BPA is completely dissolved, and the pH value was titrated to 7.2-7.4 with 1 N HC1. • 2.2.2 For test compounds other than BPA, stock solutions were prepared of each compound in DMSO or fructose formulation at a concentration of 20 mM (such that final % DMSO in the cellular assay medium=0.5%) 2.3 Compound treatment • 2.3.1 The cells were seeded overnight (12-18 hours) to allow the cells to adhere well. • 2.3.2 The stock solution of each compound was added to each T25 flask such that the final concentration for each compound is 100 uM (0.1 mM). • 2.3.3 The flasks were placed in a 37° C., 5% CO2 incubator for 1 hour, 4 hours and 24 hours. • 2.3.4 After treatment for 1 hour, 4 hour, and 24 hours, the cells were collected by using 0.25% Trypsin with 0.53 mM EDTA. • 2.3.5 Centrifuged at 1,300 rpm for 5 min to collect cell pellets.

B16F10 = assay: Cell uptake assay, B16F10 cells; type: cell-based, mouse
Protocol: as §1, §2, §3

U87-MG (glioblastoma) = assay: Cell uptake assay, U87-MG cells; type: cell-based, human
Protocol: as §1, §2, §3

SAS (head & neck cancer) = assay: Cell uptake assay, SAS cells; type: cell-based, human
Protocol: as §1, §2, §3

Structure (SMILES) | Cell uptake, Mean, NIH-3T3 (NIH-3T3; 1 hour) | Cell uptake, Mean, NIH-3T3 (NIH-3T3; 4 hours) | Cell uptake, Mean, B16F10 (B16F10; 1 hour) | Cell uptake, Mean, B16F10 (B16F10; 4 hours) | Cell uptake, Mean, U87-MG (U87-MG (glioblastoma); 1 hour) | Cell uptake, Mean, U87-MG (U87-MG (glioblastoma); 4 hours) | Cell uptake, Mean, U87-MG (U87-MG (glioblastoma); 24 hours) | Cell uptake, Mean, SAS (SAS (head & neck cancer); 1 hour) | Cell uptake, Mean, SAS (SAS (head & neck cancer); 4 hours) | Cell uptake, Mean, SAS (SAS (head & neck cancer); 24 hours) | Cell uptake, Mean, NIH-3T3 (NIH-3T3; 24 hours) | Cell uptake, Mean, B16F10 (B16F10; 24 hours)
NC(Cc1ccc(CCB(O)O)cc1F)C(=O)O (single isomer, unassigned) [compound 8, (S*)-2-amino-3-(4-(2-boronoethyl)-2-fluorophenyl)propanoic acid] | 14.7 ng/10^6 cell | 26.4 ng/10^6 cell | 26.9 ng/10^6 cell | 31.4 ng/10^6 cell | 16.7 ng/10^6 cell | 31.1 ng/10^6 cell | 16.3 ng/10^6 cell | 44.6 ng/10^6 cell | 66.7 ng/10^6 cell | 359 ng/10^6 cell | – | –
NC(Cc1ccc(CCB(O)O)cc1F)C(=O)O (single isomer, unassigned) [compound 9, (R*)-2-amino-3-(4-(2-boronoethyl)-2-fluorophenyl)propanoic acid] | 34.4 ng/10^6 cell | 43.0 ng/10^6 cell | – | 66.7 ng/10^6 cell | 90.1 ng/10^6 cell | – | 74.6 ng/10^6 cell | 129 ng/10^6 cell | 103 ng/10^6 cell | 211 ng/10^6 cell | 37.2 ng/10^6 cell | 119 ng/10^6 cell
N[C@@H](Cc1cccc(OCB(O)O)c1)C(=O)O [compound 1, (S)-2-amino-3-(3-(boronomethoxy)phenyl)propanoic acid] | 127 ng/10^6 cell | 194 ng/10^6 cell | 112 ng/10^6 cell | 232 ng/10^6 cell | 227 ng/10^6 cell | 233 ng/10^6 cell | 336 ng/10^6 cell | – | 755 ng/10^6 cell | 828 ng/10^6 cell | 133 ng/10^6 cell | 517 ng/10^6 cell
N[C@@H](Cc1ccc(OCB(O)O)cc1F)C(=O)O [compound 2, (S)-2-amino-3-(4-(boronomethoxy)-2-fluorophenyl)propanoic acid] | – | – | 151 ng/10^6 cell | 333 ng/10^6 cell | 123 ng/10^6 cell | – | 626 ng/10^6 cell | 1125 ng/10^6 cell | 1590 ng/10^6 cell | 1595 ng/10^6 cell | 205 ng/10^6 cell | 881 ng/10^6 cell
N[C@@H](Cc1ccc(OCCB(O)O)cc1)C(=O)O [compound 3, (2S)-2-amino-3-{4-[2-(dihydroxyboranyl)ethoxy]phenyl}propanoic acid] | 132 ng/10^6 cell | 138 ng/10^6 cell | 145 ng/10^6 cell | 222 ng/10^6 cell | 197 ng/10^6 cell | 211 ng/10^6 cell | 183 ng/10^6 cell | 534 ng/10^6 cell | 499 ng/10^6 cell | – | – | 117 ng/10^6 cell
NC(Cc1ccc(OCB(O)O)cc1)C(=O)O (stereo not shown) [compound 4, 2-amino-3-{4-[(dihydroxyboranyl)methoxy]phenyl}propanoic acid] | 27.1 ng/10^6 cell | 58.6 ng/10^6 cell | 46.1 ng/10^6 cell | 95.6 ng/10^6 cell | 42.8 ng/10^6 cell | 113 ng/10^6 cell | 191 ng/10^6 cell | 445 ng/10^6 cell | 495 ng/10^6 cell | 997 ng/10^6 cell | 66.6 ng/10^6 cell | 101 ng/10^6 cell
N[C@@H](Cc1cccc(CCB(O)O)c1)C(=O)O [compound 5, (S)-2-amino-3-(3-(2-boronoethyl)phenyl)propanoic acid] | 171 ng/10^6 cell | 77.2 ng/10^6 cell | – | 157 ng/10^6 cell | – | – | – | – | 225 ng/10^6 cell | 214 ng/10^6 cell | – | 262 ng/10^6 cell
N[C@@H](Cc1ccc(OCCB(O)O)cc1F)C(=O)O [compound 6, (2S)-2-amino-3-{4-[2-(dihydroxyboranyl)ethoxy]-2-fluorophenyl}propanoic acid] | 53.4 ng/10^6 cell | 23.2 ng/10^6 cell | – | 92.3 ng/10^6 cell | 160 ng/10^6 cell | 137 ng/10^6 cell | – | 152 ng/10^6 cell | 106 ng/10^6 cell | 46.0 ng/10^6 cell | – | –
N[C@@H](Cc1ccc(OCB(O)O)c(F)c1)C(=O)O [compound 10, (2S)-2-amino-3-{4-[(dihydroxyboranyl)methoxy]-3-fluorophenyl}propanoic acid] | 81.9 ng/10^6 cell | 204 ng/10^6 cell | – | 442 ng/10^6 cell | 295 ng/10^6 cell | 673 ng/10^6 cell | 681 ng/10^6 cell | 1285 ng/10^6 cell | 1850 ng/10^6 cell | – | – | 814 ng/10^6 cell
N[C@@H](Cc1ccc(F)c(OCB(O)O)c1)C(=O)O [compound 11, (2S)-2-amino-3-{3-[(dihydroxyboranyl)methoxy]-4-fluorophenyl}propanoic acid] | 32.4 ng/10^6 cell | 92.8 ng/10^6 cell | 50.6 ng/10^6 cell | 121 ng/10^6 cell | 113 ng/10^6 cell | 322 ng/10^6 cell | 309 ng/10^6 cell | 529 ng/10^6 cell | 454 ng/10^6 cell | 999 ng/10^6 cell | 122 ng/10^6 cell | 202 ng/10^6 cell
N[C@@H](Cc1cc(F)cc(OCB(O)O)c1)C(=O)O [compound 13, (2S)-2-amino-3-[3-[(dihydroxyboranyl)methoxy]-5-fluorophenyl]propanoic acid] | 183 ng/10^6 cell | 222 ng/10^6 cell | 180 ng/10^6 cell | 310 ng/10^6 cell | 521 ng/10^6 cell | 828 ng/10^6 cell | 735 ng/10^6 cell | 903 ng/10^6 cell | 1012 ng/10^6 cell | 1077 ng/10^6 cell | 168 ng/10^6 cell | 304 ng/10^6 cell
N[C@@H](Cc1cccc(C2(B(O)O)CC2)c1)C(=O)O [compound 14, (2S)-2-amino-3-{3-[1-(dihydroxyboranyl)cyclopropyl]phenyl}propanoic acid] | – | 444 ng/10^6 cell | – | – | – | – | – | – | – | – | – | –
N[C@@H](Cc1ccc(C2(B(O)O)CC2)cc1)C(=O)O [compound 15, (2S)-2-amino-3-{4-[1-(dihydroxyboranyl)cyclopropyl]phenyl}propanoic acid] | 223 ng/10^6 cell | 185 ng/10^6 cell | 193 ng/10^6 cell | – | 225 ng/10^6 cell | 337 ng/10^6 cell | 269 ng/10^6 cell | 491 ng/10^6 cell | 283 ng/10^6 cell | 419 ng/10^6 cell | 169 ng/10^6 cell | 458 ng/10^6 cell
